Experimental data reported in publication PMC2572998, “Structures of the Signal Recognition Particle Receptor from the Archaeon Pyrococcus furiosus: Implications for the Targeting Step at the Membrane” (PLoS ONE, 2008).

Molecular target: T1, Pfu-FtsY (Pyrococcus furiosus, UniProt Q8U051)
T1 construct: full-length; N-terminal hexahistidine tag (pET28b, thrombin-cleavable) removed; expressed in E. coli BL21(DE3)-rosetta2; calculated mass 35,810 Da; monomer
T1 sequence (Q8U051 1-322): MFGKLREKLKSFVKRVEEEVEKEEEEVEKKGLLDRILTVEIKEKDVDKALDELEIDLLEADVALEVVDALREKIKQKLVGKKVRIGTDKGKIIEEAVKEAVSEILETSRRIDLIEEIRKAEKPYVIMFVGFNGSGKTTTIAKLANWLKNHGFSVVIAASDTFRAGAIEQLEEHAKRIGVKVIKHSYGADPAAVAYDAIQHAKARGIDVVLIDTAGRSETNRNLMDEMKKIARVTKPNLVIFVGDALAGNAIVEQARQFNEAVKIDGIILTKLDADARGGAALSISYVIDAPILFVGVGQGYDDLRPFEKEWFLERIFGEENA
Experiment: X-ray crystal structure, […] Å
Assay type: binding
Conditions: Mg2+; co-crystallised with 10 mM GTP (hydrolysed to GDP), pH 8.0; catalytic site at full occupancy; additional external GDP at crystal contact near insertion box domain (second site, 69% occupancy)

Nc1nc2c(ncn2[C@@H]2O[C@H](COP(=O)(O)OP(=O)(O)O)[C@@H](O)[C@H]2O)c(=O)[nH]1 [GDP]
X-ray crystal structure, 2.0 Å: the crystal structure we obtained showed the presence of GDP•magnesium bound in the catalytic site
